Ends that are not written are not given here.
Assays:
[1] = tested on: HIV-1IIIB
[2] = tested on: HUVEC; assay: Endothelial tube formation assay; assay type: cell-based, human; details: 10 micrograms per ml, 20 hours
Excerpt: Positive control was vehicle only. […] Raw data were expressed as average tubule lenghs in pixels±standard deviation.

[3] = tested on: HCMV strain AD169; assay: HCMV plaque formation assay in MRC-5 cells; details: for inhibition of HCMV plaque formation as compared to the virus control experiment: 10 micrograms per ml, 7-10 days
Excerpt: Cells were split twic a week 1:2.
Ganciclovir was used as positive control.

[4] = tested on: Primary Human endothelial cells (HUVEC); assay: Endothelial cell migration assay; assay type: cell-based; details: 10 micrograms per ml, 22 hours
Protocol: Thereafter, designated concentration of testing peptides—10 micrograms per ml—was added in duplicate wells.

[5] = tested on: spleen cells of Ovalbumin-immunized Balb/c mice; assay: Th1/Th2 cytokine profiling assay (Mouse Th1/Th2 Cytokine CBA Kit); assay type: cell-based; details: 10 micrograms per ml; Ovalbumin restimulation, 72 hours
Excerpt: The Balb/c mice (originated in 1923, it is a popular strain and is used in many different research disciplines. Also classified as an inbred from the production of 20 or more successive brother-sister matings, the Balb/c mouse is albino and small in size) were immunized on Days 1, 15, and 29 with Ovalbumin (Ovalbumin is the main protein found in egg white, commonly used to stimulate an immunological reaction in test animals) in PBS (5 micrograms/injection). On day 50, spleens of the mice were harvested (3 weeks after last boost with Ovalbumin). Cells were cultured (2×10^5/well in triplicate) and incubated with culture medium or test peptides—10 micrograms per ml—for 30 min. Thereafter, additional Ovalbumin was added to the cells at 10 micrograms/ml for in vitro restimulation of the cells. 72 hours later, cell supernatants were harvested and assayed using the Becton Dickinson Mouse Th1/Th2 Cytokine CBA Kit.

[6] = tested on: RAW 264.7 cells; assay: Phagocytosis assay (Fluorescein-labeled Escherichia coli, flow cytometry); details: 10 micrograms per ml, Fluorescein-labeled E. coli, 60 min
[7] = tested on: hepatitis B virus (HBV) ayw strain; assay: HBV assay, secreted HBV DNA by TaqMan PCR in HepG2-2.2.15 cells; assay type: cell-based; details: 10 micrograms per ml, six days
Protocol: HepG2-2.2.15 is a stable cell line containing the hepatitis B virus (HBV) ayw strain genome (ATCC Cat. No. CRL-11997). […] After 16-24 hours the confluent monolayer of HepG2-2.2.15 cells was washed and the medium was replaced with complete medium containing test peptides-10 micrograms per ml—in duplicate. […] Three days later the culture medium was replaced with fresh medium containing the peptides. Six days following the initial administration of the peptides, the cell culture supernatants was collected, treated with pronase and DNAse and then used in a real-time quantitative TaqMan PCR assay. The PCR-amplified HBV DNA was detected in real-time by monitoring increases in fluorescence signals that result from the exonucleolytic degradation of a quenched fluorescence probe molecule that hybridizes to the mplified HBV DNA. For each PCR amplification, a standard curve was simultaneously generated using dilutions of purified HBV DNA. Antiviral activity was calculated from the reduction in HBV DNA levels (% virus control). A novel dye uptake assay was then employed to measure cell viability, which is used to calculate toxicity (% cell control).

Compound	antiviral activity of positive control compounds (HIV-1) [1]	inhibition of the tube formation of human endothelial cells [2]	inhibition of HCMV plaque formation as compared to the virus control experiment [3]	IFNγ spleen cells; TH1 response (% of control) [5]	IL-2 spleen cells (% of control) [5]	IL-4 spleen cells; TH2 response (% of control) [5]	IL-5 spleen cells; TH2 response (% of control) [5]	TNF-a spleen cells; TH1 response (% of control) [5]	induction of phagocytosis as compared to the control experiment [6]	other results
Cc1cn([C@H]2C[C@H](N=[N+]=[N-])[C@@H](CO)O2)c(=O)[nH]c1=O [AZT]	expected levels of antiviral activity									
His-Ser-Gly-Pro-Arg-Arg-Thr-Gln-Ala-Gln-Leu-Leu-Arg-Val-Gly-Cys-Val-Leu-Gly-Thr-Cys-Gln-Val-Gln-Asn-Leu-Ser-His-Arg-Leu-Trp-Gln-Leu-Met-Gly-Pro-Ala-Gly-Arg-Gln-Asp-Ser-Ala-Pro-Val-Asp-Pro-Ser-Ser-Pro-His-Ser-Tyr-NH2 (HSGPRRTQAQLLRVGCVLGTCQVQNLSHRLWQLMGPAGRQDSAPVDPSSPHSY-NH2; cysteine pairing not given here) [peptide 1]		19%	1.8%	21.7 % of control	75.6 % of control	166.9 % of control	34.5 % of control	70.0 % of control	did not induce phagocytosis	inhibition of the migration of endothelial cells [4]: 8%
CC(C)(C)NC(=O)[C@@H]1CN(Cc2cccnc2)CCN1C[C@@H](O)C[C@@H](Cc1ccccc1)C(=O)N[C@H]1c2ccccc2C[C@H]1O [indinavir]	expected levels of antiviral activity									
Thr-Gln-Ala-Gln-Leu-Leu-Arg-Val-Gly-Cys-Val-Leu-Gly-Thr-Cys-Gln-Val-Gln-Asn-Leu-Ser-His-Arg-Leu-Trp-Gln-Leu-Met-Gly-Pro-Ala-Gly-Arg-Gln-Asp-Ser-Ala-Pro-Val-Asp-Pro-Ser-Ser-Pro-His-Ser-Tyr-NH2 [peptide 2]		12%	0.7%	19.1 % of control	98.9 % of control	0.0 % of control	17.9 % of control	66.7 % of control	34.3%	inhibition of HBV replication as compared to the virus control infection [7]: no effect; induction of the migration of human endothelial cells [4]: 19%
Nc1nc(O)c2ncn(COC(CO)CO)c2n1 [Ganciclovir, reference compound]										antiviral activity of positive control compound (HCMV) ([3]; positive control, HCMV AD169): expected levels of antiviral activity

— patent US20100210538A1, “THERAPEUTIC USES OF INTERMEDIN 47 AND 53 PEPTIDES” (priority 2007, published 2010)
